This is an account of results in patent US20090220435A1, “TIGHT JUNCTION MODULATING PEPTIDE COMPONENTS FOR ENHANCING MUCOSAL DELIVERY OF THERAPEUTIC AGENTS” (priority 2005, published 2009).

Common to all, as to type: cell-based
Data set [1] concerns EpiAirway™ human-derived tracheal/bronchial epithelial cells. The experiment in a line: Transepithelial electrical resistance (TER) across EpiAirway epithelial cell layer.
Data set [2] has the same test system. Description: FITC-dextran / sample permeation across epithelial cell monolayer. On the procedure:
A FITC labeled dextran with a molecular weight 3000 (FD3) was used to assess the efficacy of individual TJMP on epithelial cell monolayer permeation. The tissue insert plates were transferred to a 96-well receiver plate containing 200 μl of DPBS++ as basal media. The apical surface of each tissue culture insert was incubated with a 20 μl sample of a single test formulation (refer to Table 24 of Example 25 for details of test formulations) for one hour at 37° C. in the dark on a shaker (˜100 rpm). Following the 1-hour incubation period, underlying basal media samples were taken from each tissue culture insert and temporarily stored in the dark at room temperature until FD3 levels were quantified by fluorescence spectroscopy. For FD3 measurements, a 150 μl of basal media sample was transferred to a black, clear bottom 96-well plate. Fluorescence emission at 528/20 following excitation at 485/20 were measured using a FL×800 fluorescence plate reader from Biotek Instruments.
Each tissue insert will be placed in an individual well containing 1 ml of MatTek basal media. On the apical surface of the inserts, 25 μl of test formulation will be applied according to study design, and the samples will be placed on a shaker (˜100 rpm) for 1.5 h at 37° C. FITC-labeled dextran solution is added to inserts apically and a fluorescence measurement is made from the basolateral media after the incubation period. The concentration of FITC-dextran is expressed as a percent of the starting material applied to the cells. A FITC labeled dextran with a molecular weight 4000 (MW4000) was used to assess cargo size limitations on individual TJMP permeation. Of note, various size FITC-labeled dextrans are available to perform size limitation studies.
Fluorescein isothiocyanate (FITC) labeled Dextrin (MW 3,000) was added to the treatment mixture at 0.1-1 mg/ml. The treatment mixture was added to the side of the apical wall, and the plates were incubated at 37° C. in an orbital shaker (New Brunswick Scientific, Edison, N.J.) for the designated time at 100 rpm. At the end of incubation, triplicates of 200 ul of the basal medium were transferred to a dark-wall fluorescent reading plate. Fluorescent intensity at wavelength 470 nm was measured by a microplate fluorescence reader FLx800 (BIO-TEK INSTRUMENTS, INC, Winooski, Vt.). Serial dilutions of standard were used to obtain a standard curve and calculate the concentration. Permeability was measured in two ways, as the ratio of donor mass (the apical chamber) or as the ratio of acceptor mass (the basal chamber), expressed in percentage.

For data set [3] the test system is unchanged. The experiment in a line: Cytotoxicity (LDH assay). On the procedure: The amount of cell death was assayed by measuring the loss of lactate dehydrogenase (LDH) from the cells using a CytoTox 96 Cytoxicity Assay Kit (Promega Corp., Madison, Wis.). Fifty microliters of sample was loaded into a 96-well assay plates. Fresh, cell-free culture medium was used as a blank. 50 μl of substrate solution was added to each well and the plates incubated for 30 minutes at room temperature in the dark. Following incubation, 50 μl of stop solution was added to each well and the plates read on an optical density plate reader at 490 nm.
The amount of cell death will be assayed by measuring the loss of lactate dehydrogenase (LDH) from the cells using a CytoTox 96 Cytotoxicity Assay Kit (Promega Corp., Madison, Wis.). Fifty microliters of sample will be loaded into a 96-well assay plates. Fresh, cell-free culture medium will be used as a blank. Fifty microliters of substrate solution will be added to each well and the plates incubated for 30 minutes at room temperature in the dark. Following incubation, 50 μl of stop solution will be added to each well and the plates read on an optical density plate reader at 490 nm. The measurement of LDH release into the basolateral media indicates relative cytotoxicity of the samples. One hundred percent lysis of control inserts with 0.3% Octylphenolpoly(ethyleneglycolether)×(TritonX-100) allows LDH values to be expressed as percentage of total lysis.
In some embodiments, The amount of cell death was assayed by measuring the release of lactate dehydrogenase (LDH) from the cells into the apical medium using a CytoTox 96 Cytotoxicity Assay Kit (Promega Corp., Madison, Wis.). One percent Octylphenolpoly (ethyleneglycolether)×(Triton X-100™) diluted in phosphate buffered saline (PBS) causes 100% lysis in cultured cells and served herein as a positive control for the LDH assay. Following the one hour incubation period with a test formulation (refer to Table 24 of Example 25 for details of test formulations), the total liquid volume of each insert was brought to a final volume of 200 μl with culture medium. The apical medium was then mixed by pipetting four times with a multichannel pipette set to a 100 μl volume. After mixing, a 100 μl sample from the apical side of each insert was transferred to a new 96-well plate. The apical media samples were sealed with a plate sealer and stored at room temperature for same day analysis or stored overnight at 4° C. for analysis the next day. To measure LDH levels, 5 μl of the 100 μl apical media sample was diluted in 45 μl DPBS in a new 96-well plate. Fresh, cell-free culture medium will be used as a blank. Fifty microliters of substrate solution was added to each well and incubated for 30 minutes at room temperature away from direct light. Following the 30 minute incubation, 50 μl of stop solution was added to each well. Optical density (OD) was measured at 490 nm with a uQuant absorbance plate reader from Biotek Instruments. The measurement of LDH release into the apical media indicates relative cytotoxicity of the samples. Percent cytotoxicity for each test formulation was calculated by subtracting the measured absorbance of the PBS control (basal level of LDH release) from the measured absorbance of the individual test formulation and then dividing that value by the measured absorbance for the 1% Triton X-100™ positive control, multiplied by 100.
An LDH assay was used to assess the cytotoxicity of the treatments. The LDH level was determined by CytoTox96 Non-Radioactive Cytotoxic Assay (Promega, Madison, Wis.) following the manufacturer's protocol. For basal-lateral LDH levels, triplicates of 50 ul of the basal medium were used to determine the LDH level. For apical LDH level, 150 ul of the diluted apical sample was removed by adding 150 ul of Epi-CM to the apical chamber, the medium was mixed by pipeting up and down, and 150 ul medium was removed and diluted 2× (for a final 8-fold dilution) for assay in triplicates of 50 ul.

Where [4] appears, read: 1000 μM, additional assay (in parenthesis).
The mark [5] stands for this setting: 15 minute treatment at the peptide's optimal concentration.
Setting [6] is: 60 minute treatment at the peptide's optimal concentration.

Regarding CNGRCGGKKKLKLLLKLL [PN679], the “% T0 TER” value is 70% in data set [1] (25 μM, 1 h, pH 7); 7% in data set [1] (100 μM, 1 h, pH 7); 2% in data set [1] (250 μM, 1 h, pH 7); −2% in data set [1] (500 μM, 1 h, pH 7); −2% (−2%) in data set [1] (1000 μM, 1 h, pH 7); −2% (−2%) in data set [1] (setting [4]). The “% FD3 Permeation” value is 0% in data set [2] (25 μM, 1 h, FITC dextran MW 3000); 7% in data set [2] (100 μM, 1 h, FITC dextran MW 3000); 8% in data set [2] (250 μM, 1 h, FITC dextran MW 3000); 10% in data set [2] (500 μM, 1 h, FITC dextran MW 3000); 10% (10%) in data set [2] (1000 μM, 1 h, FITC dextran MW 3000); 10% (10%) in data set [2] (setting [4]). The substance further yielded an optimal dose in data set [2] (based on TER reduction, sample permeation and LDH release) of 100 µM.
As to “Maleimide-GLGSLLKKAGKLKLKQPKSKRKV-amide [PN283]”, the TER reduction in data set [1] (100 μM peptide) was found to be 39%; in data set [1] (500 μM peptide) it was 86%; in data set [1] (1000 μM peptide) it was 92%. The substance also registered an LDH15 in data set [3] (setting [5]) of 0.0007. In data set [3] (setting [6]), the LDH60 amounted to 0.032. Moreover, the percent permeation in data set [2] (100 μM peptide) was found to be 0.7%; in data set [2] (500 μM peptide), 3.9%; in data set [2] (1000 μM peptide), 5.2%. For the same substance, in data set [2] (setting [5]), the “% Perm 15” value is listed as 1.06%. Moreover, the “% Perm 60” value in data set [2] (setting [6]) is recorded as 4.99%. Moreover, the “permeation of FITC-dextran MW4000” value in data set [2] (60 minutes of incubation, peptide at optimal concentration) is given as “approximately 5%”. The “Optimal Concentration” value in data set [2] (greatest TER reduction with highest permeability and no significant cytotoxicity) was 1000 µM.
